In patent US12570975B2, “Composition for diagnosis or treatment of a condition associated with increased activity of EIF4E comprising an EIF4E inhibitor” (SoVarGen Co., Ltd., priority 2019, dated 2026):

Legend:
[1] = test system: epilepsy models (mTOR p.C1483Y or mTOR p.L2427P); test: Seizure monitoring after ICV injection of ASO in FMCD epilepsy models; assay type: in vivo, mouse; settings: ICV injection 100-500 μg, day 3 to day 70 after injection
Method: For this experiment, animal models established using pCIG-mTOR p.C1483Y-IRES-EGFP and pCIG-mTOR p.L2427P-IRES-EGFP of Example 1 were used while animal models established with pCIG-mTOR (WT)-IRES-EGFP […] served as a control. The ASOs were each intracerebroventricularly injected (ICV injection) at a dose of 100-500 μg to the brains of the mice that had been identified to undergo epileptic seizure. From day 3 after ASO injection to up to day 70, 12-hour video were recorded for seizure monitoring 2-3 times a week per mouse.

[2] = test system: C57BL/6J mice; settings: in vivo
[3] = test system: C57BL/6J mice; settings: male or female mice injected with ASO
[4] = test system: FMCD and epilepsy animal models (mTOR-p.C1483Y, mTOR-p.L2427P); test: Light & dark box test, FMCD epilepsy models; assay type: in vivo, mouse; settings: ASO-eIF4E models compared to ASO-control models
Method: (§1) Behaviors were recorded and analyzed using EthoVision XT (Noldus).
(§2) Experiments were performed on the FMCD and epilepsy animal models (mTOR-p.C1483Y, mTOR-p.L2427P) of Example 7-1 and the control normal animal models (mTOR-WT). The same sheIF4E as that described in Example 2 was used. Week 2 after sheIF4E injection, the handling was performed in the animals. Week 3 after sheIF4E injection, the animals were subjected to the behavioral tests.
(§3) The epilepsy animal models were subjected to the substantially same behavioral abnormality assay as in Example 6. The results are depicted in FIGS. 28 and 29.
(§4) Briefly, ASO #77 was administered by ICV injection to the FMCD and epilepsy animal models were generated with the pCIG-mTOR mutant-IRES-EGFP of Example 1. ASO #77 was evaluated for therapeutic potential for neuropsychiatric disorder accompanying the FMCD epilepsy animal models in the substantially same manner as in Example 6.

[5] = test system: FMCD and epilepsy animal models (mTOR-p.C1483Y, mTOR-p.L2427P); assay type: in vivo, mouse
Method: as §1, §2, §3, §4

[6] = test system: FMCD and epilepsy animal models (mTOR-p.C1483Y, mTOR-p.L2427P); test: Sucrose preference test, FMCD epilepsy models; assay type: in vivo, mouse; settings: ASO-eIF4E models compared to ASO-control models
Method: Each of mice was habituated for 3-5 days in a cage with two selectable water bottles presented. Thereafter, the mice were each placed in the same cage as the habituation cage at the day of experiment. The mice were presented with two dual bottles, one containing tap water and the other containing 1% sucrose solution. Water and sucrose solution intake was measured after 24 hours and sucrose preference was calculated according to volume of sucrose intake/total volume of fluid intake×100%.
The same sheIF4E as that described in Example 2 was used. Week 2 after sheIF4E injection, the handling was performed in the animals. Week 3 after sheIF4E injection, the animals were subjected to the behavioral tests.
The epilepsy animal models were subjected to the substantially same behavioral abnormality assay as in Example 6.
as §4

[7] = test system: eIF4E mRNA; test: ASO screening by real-time PCR (eIF4E mRNA, HEK293T); assay type: cell-based, human; settings: relative to ASO #75
Method: In an alternative approach for screening the designed ASO candidates, the human cell line HEK293T cells (human) were cultured on 96-well culture plates for 24 hours and then transfected with ASO candidates with the aid of iN-fect™ transfection reagent (INTRON, 15081). Twenty four hours after transfection, the cells were harvested and subjected to lysis and RNA extraction using SuperPrep™ II Cell Lysis & RT Kit reagent (Toyobo, SCQ-401). From the RNA thus obtained, cDNA was synthesized by reverse transcription PCR. Real-time PCR was performed in CXF384 Touch™ Real-Time System (Bio-Rad) with SYBR® green real-time PCR master mix (Toyobo, QPK-201). Forward and reverse PCR primer sequences for eIF4E and GAPDH are as follows:
The real-time PCR conditions in the CXF384_Touch™ Real-Time System were as follows: 95° C. for 1 min, then 95° C. for 15 sec, 59.5° C. for 20 sec, and 72° C. for 30 sec for 39 cycles. Each sample was analyzed in triplicates. […] FIGS. 16b and 16c are graphs in which relative eIF4E expression levels are quantitatively expressed as ratios compared to the GAPDH expression level in HEK293T cells treated with ASO candidates.

[8] = over 8 weeks after ASO injection, 8-week-old mTOR mutation C57BL/6J mice
[9] = test system: ADK, IRSp53, and CREB1; test: Immunofluorescence of ADK, IRSp53 and CREB1 after ASO injection; assay type: in vivo, mouse; settings: week 4-5 after ICV injection
Method: (§5) Week 4-5 after intracerebroventricular injection of ASO into the animal models established using pCIG-mTOR mutant-IRES-EGFP vector of Example 1, the brain was removed, fixed, sectioned, and immunostained.
(§6) Immunostaining with antibodies against ADK, CREB1, IRSp53, and eIF4E and Imaging with fluorescence were conducted in the same manner as in Example 2.

[10] = test system: eIF4E; test: Immunofluorescence of eIF4E in brain cells after ASO injection; assay type: in vivo, mouse; settings: week 4-5 after ICV injection, FMCD models
Method: as §5, §6

[11] = test system: C57BL/6J mice; settings: mouse, in vivo
[12] = test system: C57BL/6J mice; settings: mouse, in vivo; remark: listed apart in the source
[13] = test system: FMCD and epilepsy animal models (mTOR-p.C1483Y, mTOR-p.L2427P); test: 3-Chamber test (social interaction), FMCD epilepsy models; assay type: in vivo, mouse; settings: ASO-eIF4E models compared to ASO-control models
Method: The 3-Chamber test measures social interaction and preference for social novelty. This apparatus consisted of three chambers with dimensions of 12×20×26 cm for the center chamber and dimensions of 14×20×26 cm for the opposite side chambers. Each of the opposite side chambers included a plastic cage (11 cm in diameter, 2.15 cm in height) for an object or stranger mouse in a corner. This experiment consisted of three sessions of habituation (10 min), exploring object/mouse (10 min), and exploring familiar/new mouse (10 min). In the second session, a WT stranger mouse was randomly placed in a plastic cage while the opposite plastic cage was empty. The mouse was allowed to freely explore the whole apparatus. The time spent in each chamber was measured and then used for the subsequent social interaction test. In the last session, a new WT stranger was placed in the empty plastic cage.
Experiments were performed on the FMCD and epilepsy animal models (mTOR-p.C1483Y, mTOR-p.L2427P) of Example 7-1 and the control normal animal models (mTOR-WT). […]
as §4

Substance: ASO #77: eIF4E-targeting antisense oligonucleotide of SEQ ID NO: 77, 2′-MOE gapmer, all phosphorothioate linkages (antisense GATCCTTCACCAATGTTACA; all phosphorothioate, sugars by position and methylation of C not given here; 2'-MOE gapmer)
- seizure frequency [1]: remarkably reduced
- time spent to interact with the stranger mouse (index of sociality and depression) [2]: not changed
- % sucrose preference [3]: not changed
- time spent in center (residence time within the light box) [4]: increased
- time spent in center (index of anxiety) ([5]; ASO-eIF4E models compared to ASO-control models): increased
- dyskinesia (behavior test) ([5]; mouse, in vivo): no dyskinesia
- % sucrose preference [6]: increased
- Expression level of eIF4E(%) compared to ASO#75 [7]: 121%
- body weight [8]: recovered to normal conditions
- expression of ADK, IRSp53, and CREB1 in the mutation cells [9]: rescue of the expression of ADK, IRSp53, and CREB1 to a normal level
- eIF4E expression in brain cells (immunofluorescence) [10]: reduction of eIF4E expression
- time spent in center (residence time within the light box) [11]: not changed
- number of buried marbles (index of repetitive behavior) [12]: not changed
- time spent in sniffing zone (social ability) [13]: increased
